According to patent US6410054B1, “Immediate release eplerenone compositions” (G. D. Searle & Co., priority 1998, dated 2002):

Assays:
[1] = Single dose study: plasma pharmacokinetics of eplerenone, open lactone ring form, spironolactone; settings: open ring lactone in plasma
Experimental: The pharmacokinetics, safety and antialdosterone activity of single 10, 50, 100, 300 and 1000 mg oral doses of eplerenone were evaluated in a single-center, randomized, double-blind, placebo-controlled study.
The study employed seven parallel dose groups of eight healthy male humans.
The eplerenone capsules administered corresponded to the capsules (or combinations of the capsules) disclosed in Examples 4, 5, 7 and 8 above. The placebo was a conventional capsule containing lactose. […] The fludrocortisone used in the study consisted of commercially available fludrocortisone tablets (Florinef®, Squibb BV).
The subjects, who underwent a ten hour food fast prior to administration of the dose, received a single oral dose of one of the study medications together with about 180 mL of water at 0800 hours. […] Each dose of fludrocortisone was administered with 150 mL of water except for the 1.0 mg dose which was administered with 200 mL of water.
The plasma samples collected from subjects dosed with eplerenone were assayed for concentrations of eplerenone and the open lactone ring form of eplerenone. […] A subset of plasma samples was also assayed for testosterone levels. The urine collected was analyzed to determine concentrations and amounts of eplerenone and the open lactone ring form of eplerenone, the amount of sodium and potassium excreted, and the urinary log10 (sodium/potassium) ratio.

[2] = Multiple dose study: plasma pharmacokinetics and urinary excretion; format: in vivo, humans
Experimental: Multiple oral dose tolerability and the pharmacokinetics of several dosages of eplerenone were evaluated in a double-blind, randomized, placebo-controlled, rising oral dose, sequential panel study of 40 healthy male subjects (five groups of eight subjects). The study medication was administered in […] sequential dose panels, with each panel including eplerenone, spironolactone and placebo. […] The 100 mg and 200 mg dose capsules corresponded to those described in Examples 7 and 8, respectively. Following a 48-hour interval, the study drug was administered once a day for 11 days. Antialdosterone activity was determined following a fludrocortisone challenge on Days 12-13.

AUC(0-96) ([1]; 50 mg Epl. single oral dose): 142.8 (ng/mL) hr
Mean Residence Time ([1]; 50 mg Epl. single oral dose): 2.8 h
Oral Clearance ([1]; 50 mg Epl. single oral dose): 491.3 L/h
T1/2 ([1]; 50 mg Epl. single oral dose): 2.7 h
Tmax ([1]; 50 mg Epl. single oral dose): 1.0 h
AUC(0-96) ([1]; 100 mg Epl. single oral dose): 246.8 (ng/mL) hr
Mean Residence Time ([1]; 100 mg Epl. single oral dose): 3.3 h
Oral Clearance ([1]; 100 mg Epl. single oral dose): 445.2 L/h
T1/2 ([1]; 100 mg Epl. single oral dose): 2.7 h
Tmax ([1]; 100 mg Epl. single oral dose): 1.1 h
AUC(0-96) ([1]; 300 mg Epl. single oral dose): 1065.1 (ng/mL) hr
Mean Residence Time ([1]; 300 mg Epl. single oral dose): 4.2 h
Oral Clearance ([1]; 300 mg Epl. single oral dose): 299.8 L/h
T1/2 ([1]; 300 mg Epl. single oral dose): 2.8 h
Tmax ([1]; 300 mg Epl. single oral dose): 1.3 h
AUC(0-96) ([1]; 1000 mg Epl. single oral dose): 3483.5 (ng/mL) hr
Mean Residence Time ([1]; 1000 mg Epl. single oral dose): 5.7 h
Oral Clearance ([1]; 1000 mg Epl. single oral dose): 330.7 L/h
T1/2 ([1]; 1000 mg Epl. single oral dose): 2.6 h
Tmax ([1]; 1000 mg Epl. single oral dose): 2.5 h
dose proportionality of plasma concentrations and dose-adjusted AUC ([2]; 100 mg to 1000 mg, single or multiple doses): consistent with dose proportionality
Structure (SMILES): COC(=O)C1CC2=CC(=O)CCC2(C)C23OC2CC2(C)C(CCC2(O)CCC(=O)O)C13 (stereo not shown) [Open Ring Lactone]
accumulation ([2]; once a day for 11 days): no significant or dose-related accumulation
